Assay: wn = mass fraction of the nth substance listed
Settings: 100 kPa, Liquid; for viscosity: Concentric cylinders viscometry; for mass density: Vibrating tube method

CCCCCC(=O)[O-].C[N+](C)(C)CCO [2-hydroxy-N,N,N-trimethylethanaminium hexanoate] + O
Settings	mass density, w2 = 0.058 [kg/m3]	mass density, w2 = 0.091 [kg/m3]	mass density, w2 = 0.161 [kg/m3]	mass density, w2 = 0.198 [kg/m3]	viscosity, w2 = 0.058 [mPa·s]	viscosity, w2 = 0.091 [mPa·s]	viscosity, w2 = 0.161 [mPa·s]	viscosity, w2 = 0.198 [mPa·s]
293.15 K	1018	1021	1026	1026	1187.4	640.3	202.1	166.8
298.15 K	1015	1018	1023	1023	831.9	462.6	151.2	125.3
303.15 K	1012	1015	1020	1021	598.1	340.7	114.8	95.6
308.15 K	1009	1012	1017	1018	439	255.5	88.6	74.1
313.15 K	1007	1009	1014	1015	328.4	195.3	69.7	58.4
318.15 K	1004	1006	1011	1012	249.1	150.8	55.1	46.4
323.15 K	1001	1003	1008	1009	192.3	118.4	44.3	37.5
328.15 K	998	1001	1005	1006	150.4	94.1	36.1	30.6
333.15 K	996	998	1003	1003	119.5	76	29.8	25.3
338.15 K	993	995	1000	1000	95.6	61.7	24.7	21
343.15 K	990	992	997	997	77.6	50.7	20.7	17.7

C[C@H](O)C(=O)[O-].C[N+](C)(C)CCO + O
Settings	mass density [kg/m3]	viscosity [mPa·s]
293.15 K, w2 = 0.004	1140.9	3661.3
293.15 K, w2 = 0.011	1142	2703
293.15 K, w2 = 0.02	1142.3	1543.3
293.15 K, w2 = 0.029	1141.9	1408.3
293.15 K, w2 = 0.045	1140.9	888
293.15 K, w2 = 0.066	1139.9	546.3
293.15 K, w2 = 0.077	1139.3	421.4
293.15 K, w2 = 0.121	1137	201.3
293.15 K, w2 = 0.167	1135.4	119.8
293.15 K, w2 = 0.218	1131.4	70.5
293.15 K, w2 = 0.24	1127.4	48
298.15 K, w2 = 0.004	1137.8	2310.1
298.15 K, w2 = 0.011	1138.8	1732.1
298.15 K, w2 = 0.02	1139	1021
298.15 K, w2 = 0.029	1138.5	936.5
298.15 K, w2 = 0.045	1137.5	604.3
298.15 K, w2 = 0.066	1136.5	380.6
298.15 K, w2 = 0.077	1136	297.1
298.15 K, w2 = 0.121	1133.7	146.7
298.15 K, w2 = 0.167	1132.1	89.1
298.15 K, w2 = 0.218	1128.1	53.6
298.15 K, w2 = 0.24	1124.1	37.1
303.15 K, w2 = 0.004	1134.7	1510.1
303.15 K, w2 = 0.011	1135.6	1150.1
303.15 K, w2 = 0.02	1135.7	697.5
303.15 K, w2 = 0.029	1135.2	642.3
303.15 K, w2 = 0.045	1134.2	423.6
303.15 K, w2 = 0.066	1133.3	272.7
303.15 K, w2 = 0.077	1132.7	215.2
303.15 K, w2 = 0.121	1130.5	109.4
303.15 K, w2 = 0.167	1128.9	67.8
303.15 K, w2 = 0.218	1124.8	41.6
303.15 K, w2 = 0.24	1120.8	29.2
308.15 K, w2 = 0.004	1131.7	1019.4
308.15 K, w2 = 0.011	1132.4	787.6
308.15 K, w2 = 0.02	1132.4	490.6
308.15 K, w2 = 0.029	1131.8	453.5
308.15 K, w2 = 0.045	1130.9	305
308.15 K, w2 = 0.066	1130.1	200.4
308.15 K, w2 = 0.077	1129.6	159.8
308.15 K, w2 = 0.121	1127.3	83.5
308.15 K, w2 = 0.167	1125.8	52.6
308.15 K, w2 = 0.218	1121.6	32.9
308.15 K, w2 = 0.24	1117.6	23.4
313.15 K, w2 = 0.004	1128.6	708.4
313.15 K, w2 = 0.011	1129.1	554.7
313.15 K, w2 = 0.02	1129.2	354.1
313.15 K, w2 = 0.029	1128.6	328.4
313.15 K, w2 = 0.045	1127.8	225
313.15 K, w2 = 0.066	1126.9	150.7
313.15 K, w2 = 0.077	1126.4	121.4
313.15 K, w2 = 0.121	1124.2	65
313.15 K, w2 = 0.167	1122.6	41.7
313.15 K, w2 = 0.218	1118.5	26.4
313.15 K, w2 = 0.24	1114.5	18.9
318.15 K, w2 = 0.004	1125.4	505.4
318.15 K, w2 = 0.011	1125.9	400.7
318.15 K, w2 = 0.02	1126.1	261.6
318.15 K, w2 = 0.029	1125.5	243.5
318.15 K, w2 = 0.045	1124.7	169.7
318.15 K, w2 = 0.066	1123.8	115.6
318.15 K, w2 = 0.077	1123.3	94
318.15 K, w2 = 0.121	1121	51.5
318.15 K, w2 = 0.167	1119.5	33.6
318.15 K, w2 = 0.218	1115.2	21.6
318.15 K, w2 = 0.24	1111.2	15.8
323.15 K, w2 = 0.004	1122.3	369.4
323.15 K, w2 = 0.011	1122.7	296.2
323.15 K, w2 = 0.02	1123	197.4
323.15 K, w2 = 0.029	1122.4	184.4
323.15 K, w2 = 0.045	1121.6	130.6
323.15 K, w2 = 0.066	1120.8	90.4
323.15 K, w2 = 0.077	1120.2	74.1
323.15 K, w2 = 0.121	1118	41.5
323.15 K, w2 = 0.167	1116.3	27.4
323.15 K, w2 = 0.218	1112	17.9
323.15 K, w2 = 0.24	1108	13.2
328.15 K, w2 = 0.004	1119.2	275.9
328.15 K, w2 = 0.011	1119.8	223.5
328.15 K, w2 = 0.02	1120.1	151.8
328.15 K, w2 = 0.029	1119.4	142.3
328.15 K, w2 = 0.045	1118.6	102.3
328.15 K, w2 = 0.066	1117.7	71.9
328.15 K, w2 = 0.077	1117.1	59.3
328.15 K, w2 = 0.121	1114.9	33.9
328.15 K, w2 = 0.167	1113.2	22.7
328.15 K, w2 = 0.218	1108.8	15
328.15 K, w2 = 0.24	1104.8	11.2
333.15 K, w2 = 0.004	1116.3	210.2
333.15 K, w2 = 0.011	1116.8	171.9
333.15 K, w2 = 0.02	1117.1	118.9
333.15 K, w2 = 0.029	1116.5	111.7
333.15 K, w2 = 0.045	1115.6	81.4
333.15 K, w2 = 0.066	1114.7	58
333.15 K, w2 = 0.077	1114.1	48.2
333.15 K, w2 = 0.121	1111.8	28.1
333.15 K, w2 = 0.167	1110	19
333.15 K, w2 = 0.218	1105.6	12.7
333.15 K, w2 = 0.24	1101.5	9.5
338.15 K, w2 = 0.004	1113.3	163.1
338.15 K, w2 = 0.011	1114	134.6
338.15 K, w2 = 0.02	1114.2	94.6
338.15 K, w2 = 0.029	1113.6	89
338.15 K, w2 = 0.045	1112.6	65.8
338.15 K, w2 = 0.066	1111.8	47.5
338.15 K, w2 = 0.077	1111.2	39.7
338.15 K, w2 = 0.121	1108.6	23.5
338.15 K, w2 = 0.167	1106.8	16.1
338.15 K, w2 = 0.218	1102.4	11
338.15 K, w2 = 0.24	1098.3	8.3
343.15 K, w2 = 0.004	1110.2	128.7
343.15 K, w2 = 0.011	1111	106.9
343.15 K, w2 = 0.02	1111.3	76.3
343.15 K, w2 = 0.029	1110.7	72
343.15 K, w2 = 0.045	1109.8	53.8
343.15 K, w2 = 0.066	1108.8	39.3
343.15 K, w2 = 0.077	1108.1	33.1
343.15 K, w2 = 0.121	1105.5	19.9
343.15 K, w2 = 0.167	1103.7	13.8
343.15 K, w2 = 0.218	1099.2	9.5
343.15 K, w2 = 0.24	1095	7.3

Reference: the NIST ThermoML archive (doi:10.1016/j.jct.2014.12.020)
